The test system of assay [1] is BAD KO SV40 MEF (BAD gene knockout immortalized mouse embryonic fibroblast). Put plainly: Cytotoxic activity, alamar blue assay, BAD KO SV40 MEF. In kind it is cell-based. The note with it: Mus musculus, Fibroblast; BAD KO SV40 MEF, 72 h incubation, alamar blue; read-out: IC50. An excerpt:
(§1) HCT116 (human colon carcinoma), HepG2 (human hepatocellular carcinoma), HSC-3 (human oral squamous cell carcinoma), SCC-4 (human oral squamous cell carcinoma), SCC-9 (human oral squamous cell carcinoma), HL-60 (human promyelocytic leukemia), K-562 (human chronic myelogenous leukemia), B16-F10 (murine melanoma), MRC-5 (human lung fibroblast), WT SV40 MEF (wild-type immortalized mouse embryonic fibroblast) and BAD KO SV40 MEF (BAD gene knockout immortalized mouse embryonic fibroblast) cell lines were obtained from the American Type Culture Collection (ATCC, Manassas, VA, USA) and cultured in RPMI-1640 medium (Gibco-BRL, Gaithersburg, MD, USA) with 10% fetal bovine serum (Life, Carlsbad, CA, USA), 2 mM L-glutamine (Vetec Química Fina, Duque de Caxias, RJ, Brazil) and 50 μg/mL gentamycin (Life, Carlsbad, CA, USA). Adherent cells were collected by treatment with 0.25% trypsin EDTA solution (Gibco-BRL, Gaithersburg, MD, USA). All cell lines were cultured in flasks at 37°C in 5% CO2 and sub-cultured every 3-4 days to maintain exponential growth.
(§2) Cell viability was quantified using the alamar blue assay, according to Ahmed et al.. Cells were inserted in 96-well plates for all experiments (7 x 10^4 cells/mL for adherent cells or 3 x 10^5 cells/mL for suspended cells in 100 μL of medium). […] Negative controls received the vehicle that was used for diluting the compounds tested.

Assay [2] deals with WT SV40 MEF (wild-type immortalized mouse embryonic fibroblast). The assay is described as follows: Cytotoxic activity, alamar blue assay, WT SV40 MEF. In kind it is cell-based. The settings on record: Mus musculus, Fibroblast; WT SV40 MEF, 72 h incubation, alamar blue; read-out: IC50.
Description: as §1, §2

Assay [3] concerns SCC-4 (human oral squamous cell carcinoma). The assay is described as follows: Cytotoxic activity, alamar blue assay, SCC-4. It is filed as cell-based. The note with it: SCC-4, 72h of incubation, alamar blue; with 95% confidence interval.
Description: as §1, §2
For orientation: Resazurin is reduced to fluorescent resorufin, in cell work by metabolically active cells.

In assay [4] the test system is HL-60 (human promyelocytic leukemia). Put plainly: Cytotoxic activity, alamar blue assay, HL-60. It is filed as cell-based. The note with it: HL-60, 72h of incubation, alamar blue; with 95% confidence interval.
Description: as §1, §2

For assay [5], the system named is MRC-5 (human lung fibroblast). Put plainly: Cytotoxic activity, alamar blue assay, MRC-5 non-cancer cells. The note with it: MRC-5 non-cancer cells, 72h of incubation, alamar blue; with 95% confidence interval; read-out: IC50. It is filed as cell-based.
Description: as §1, §2

Assay [6] relates to PBMC (human peripheral blood mononuclear cells). Put plainly: Cytotoxic activity, alamar blue assay, PBMC non-cancer cells. In kind it is cell-based. The settings on record: PBMC non-cancer cells, 72h of incubation, alamar blue; with 95% confidence interval; read-out: IC50. As to the method: PBMCs were washed and resuspended at a concentration of 3 x 10^5 cells/mL in RPMI 1640 medium with 20% fetal bovine serum, 2 mM glutamine and 50 μg/mL gentamycin at 37°C with 5% CO2. […] The Research Ethics Committee of the Oswaldo Cruz Foundation (Salvador, Bahia, Brazil) approved the experimental protocol (# 031019/2013). All participants signed a written informed consent to participate in the study.
as §2

Assay [7] relates to cancer multicellular spheroids formed from HCT116 cells. The assay is described as follows: 3D multicellular spheroids culture, alamar blue assay. In kind it is cell-based, human. The note with it: 3D spheroids of HCT116, 72 h treatment, alamar blue; read-out: IC50. As to the method:
as §2
HCT116 cells were cultivated in 3D multicellular spheroids. Briefly, 100 μL of a solution of cells (0.5 x 10^6 cells/mL) were inserted in 96-well plate with a cell-repellent surface (Greiner Bio-One, Kremsmünster, Austria) and cultured in RPMI 1640 medium with 10% fetal bovine serum, 2 mM glutamine, 3% matrigel (BD Biosciences, San Jose, CA, EUA) and 50 μg/mL gentamycin at 37°C with 5% CO2. […] Negative control received the vehicle that was used for diluting the compounds tested. In the end of the experiment, morphological changes were examined by light microscopy (Olympus BX41, Tokyo, Japan) using Image-Pro software (Media Cybernetics, Inc. Silver Spring, USA) and the cell viability was determined by alamar blue assay as described above.

The test system of a further assay is HCT116 cells. Put plainly: Internucleosomal DNA fragmentation and cell cycle distribution (DNA content, flow cytometry). In kind it is cell-based, human. The settings on record: HCT116, 3 μM, mean ± S.E.M. As to the method: Cells were harvested in a permeabilization solution containing 0.1% triton X-100 (Sigma Chemical Co. St Louis, MO, USA), 2 μg/mL propidium iodide (Sigma Chemical Co. St Louis, MO, USA), 0.1% sodium citrate and 100 μg/mL RNAse (Sigma Chemical Co. St Louis, MO, USA) and incubated in the dark for 15 min at room temperature.
For orientation: A flow cytometer gives signals particle by particle.

The record followed here is paper PMC5732813, “Novel piplartine-containing ruthenium complexes: synthesis, cell growth inhibition, apoptosis induction and ROS production on HCT116 cells” (Oncotarget, 2017).

SMILES strings stand for the structures.

On to `O=c1[nH]cc(F)c(=O)[nH]1` [5-fluorouracil], for which the IC50 in assay [1] was determined as 7.3 µM; in assay [2], 1.7 µM.
As for `O=C1[O][Pt]2([NH][C@@H]3CCCC[C@H]3[NH]2)[O]C1=O` [Oxaliplatin], the IC50 is 7.7 µM in assay [3]; 0.6 µM in assay [4]; 1.3 µM in assay [5]; 9.4 µM in assay [6]; 9.3 µM in assay [7]. The “DNA content (%) S” value in the assay on HCT116 cells (24h) stood at 16.9 ± 2.0%; with HCT116 cells (48h), 17.4 ± 1.9%.

As a reminder, the IC50 is the concentration that inhibits the measured activity by half.
